“And” between values parts separate entries of the source, which are not always exact repeats. Equal values may be shown once. Toxic doses and inconclusive results are not listed.
Tested on: P388 leukemia ip, CD2F1 mice, survival T/C
Assay: NCI In Vivo Anticancer Drug Screen. Data for tumor model P388 Leukemia (intraperitoneal) in CD2F1 (CDF1) mice
Details: endpoint: median survival time, higher = longer survival
Procedure: The antitumor activity of compounds was measured in mice bearing transplantable tumors. Survival or tumor size were measured and the results are expressed as the measurement made in the treated group (T) divided by the measurement made in the vehicle treated control group (C). The tumor model used in this assay is P388 Leukemia (intraperitoneal) in CD2F1 (CDF1) mice

[1] = dose: 60.0 mg/kg/injection, schedule: Q01DX005 (ip), vehicle: Klucel (hydroxypropylcellulose) (HPC)
[2] = dose: 240.0 mg/kg/injection, schedule: Q01DX005 (ip), vehicle: Klucel (hydroxypropylcellulose) (HPC)
[3] = dose: 200.0 mg/kg/injection, schedule: Q01DX009 (ip), vehicle: saline
[4] = dose: 15.0 mg/kg/injection, schedule: Q01DX005 (ip), vehicle: saline with Tween-80
[5] = dose: 30.0 mg/kg/injection, schedule: Q01DX005 (ip), vehicle: saline with Tween-80
[6] = dose: 100.0 mg/kg/injection, schedule: Q04DX003 (ip), vehicle: saline
[7] = dose: 50.0 mg/kg/injection, schedule: Q01DX005 (ip), vehicle: saline with Tween-80
[8] = dose: 100.0 mg/kg/injection, schedule: Q01DX005 (ip), vehicle: saline with Tween-80
[9] = dose: 200.0 mg/kg/injection, schedule: Q01DX005 (ip), vehicle: saline with Tween-80
[10] = dose: 50.0 mg/kg/injection, schedule: Q01DX009 (ip), vehicle: saline with Tween-80
[11] = dose: 50.0 mg/kg/injection, schedule: Q01DX009 (ip), vehicle: saline

Cc1cccc(N2CCN(c3ccc4nonc4c3[N+](=O)[O-])CC2)c1
T/C (dose: 50.0 mg/kg/injection, schedule: Q01DX009 (ip), vehicle: suspension in saline): 98 % of control
T/C (dose: 100.0 mg/kg/injection, schedule: Q01DX009 (ip), vehicle: suspension in saline): 92 % of control and 95 % of control
T/C (dose: 200.0 mg/kg/injection, schedule: Q01DX009 (ip), vehicle: suspension in saline): 89 % of control and 90 % of control

CN(C)C(=O)N1OC(CN)CC1=O (centres undefined)
T/C [1]: 105 % of control
T/C (dose: 120.0 mg/kg/injection, schedule: Q01DX005 (ip), vehicle: Klucel (hydroxypropylcellulose) (HPC)): 104 % of control
T/C [2]: 105 % of control

NC(=O)NO
T/C (dose: 112.0 mg/kg/injection, schedule: Q03HX024 (ip), vehicle: saline): 83 % of control
T/C [3]: 160 % of control
T/C (dose: 300.0 mg/kg/injection, schedule: Q01DX009 (ip), vehicle: saline): 185 % of control
T/C (dose: 450.0 mg/kg/injection, schedule: Q01DX009 (ip), vehicle: saline): 160 % of control and 184 % of control
T/C (dose: 500.0 mg/kg/injection, schedule: Q01DX009 (ip), vehicle: saline): 200 % of control
T/C (dose: 750.0 mg/kg/injection, schedule: Q01DX009 (ip), vehicle: saline): 100 % of control and 98 % of control
T/C (dose: 2000.0 mg/kg/injection, schedule: Q01DX001 (ip), vehicle: saline): 98 % of control

CC1=NCC[N-]CC[N-]CCN=C(C)C2CCCC1[N-]2.[Mn+3]
T/C (dose: 7.5 mg/kg/injection, schedule: Q01DX005 (ip), vehicle: saline with Tween-80): 100 % of control
T/C [4]: 96 % of control
T/C [5]: 96 % of control

NC1(c2ccccc2)CON=C(c2ccccc2)C1 (centres undefined)
T/C (dose: 6.25 mg/kg/injection, schedule: Q04DX003 (ip), vehicle: saline): 109 % of control
T/C (dose: 12.5 mg/kg/injection, schedule: Q04DX003 (ip), vehicle: saline): 104 % of control
T/C (dose: 25.0 mg/kg/injection, schedule: Q04DX003 (ip), vehicle: saline): 102 % of control
T/C [6]: 100 % of control

N=C(N)c1ccc(NC(=O)c2ccc(C(=O)Nc3ccc(C(=N)N)cc3)c(N)c2)cc1
T/C [7]: 110 % of control
T/C [8]: 107 % of control
T/C [9]: 87 % of control

COC(=O)C1(CC(=O)/C=C/c2ccccc2)NC(=S)NC(=O)C1C#N (centres undefined)
T/C (dose: 30.0 mg/kg/injection, schedule: Q01DX005 (ip), vehicle: Klucel (hydroxypropylcellulose) (HPC)): 102 % of control
T/C [1]: 91 % of control and 92 % of control
T/C [2]: 92 % of control

NCc1ccc(Cc2ccc(CN)cc2)cc1
T/C [10]: 100 % of control
T/C (dose: 100.0 mg/kg/injection, schedule: Q01DX009 (ip), vehicle: saline with Tween-80): 100 % of control

CNc1ncnc2c1cnn2C
T/C [10]: 95 % of control
T/C [6]: 104 % of control
T/C (dose: 200.0 mg/kg/injection, schedule: Q04DX003 (ip), vehicle: saline): 109 % of control

C[N-]N(C)C(=O)[S-].C[N-]N(C)C(=O)[S-].C[N-]N(C)C(=O)[S-].[Co]
T/C (dose: 25.0 mg/kg/injection, schedule: Q04DX003 (ip), vehicle: saline with Tween-80): 103 % of control
T/C (dose: 50.0 mg/kg/injection, schedule: Q04DX003 (ip), vehicle: saline with Tween-80): 103 % of control

COc1c(Br)c2c(c([N+](=O)[O-])c1OC)C(=O)OC2
T/C (dose: 25.0 mg/kg/injection, schedule: Q01DX005 (ip), vehicle: Klucel (hydroxypropylcellulose) (HPC)): 103 % of control
T/C (dose: 50.0 mg/kg/injection, schedule: Q01DX005 (ip), vehicle: Klucel (hydroxypropylcellulose) (HPC)): 96 % of control
T/C (dose: 100.0 mg/kg/injection, schedule: Q01DX005 (ip), vehicle: Klucel (hydroxypropylcellulose) (HPC)): 96 % of control
T/C (dose: 200.0 mg/kg/injection, schedule: Q01DX005 (ip), vehicle: Klucel (hydroxypropylcellulose) (HPC)): 104 % of control

CN(C)CCSc1nc2ccccc2o1
T/C (dose: 60.0 mg/kg/injection, schedule: Q01DX005 (ip), vehicle: saline): 105 % of control
T/C (dose: 120.0 mg/kg/injection, schedule: Q01DX005 (ip), vehicle: saline): 104 % of control

COc1ccc2c(c1)CCC1C2CCC2(C)C1CCC2(O)CCN (centres undefined)
T/C (dose: 25.0 mg/kg/injection, schedule: Q04DX002 (ip), vehicle: saline): 100 % of control
T/C (dose: 50.0 mg/kg/injection, schedule: Q04DX002 (ip), vehicle: saline): 101 % of control
T/C (dose: 100.0 mg/kg/injection, schedule: Q04DX002 (ip), vehicle: saline): 104 % of control

c1cc2n3c1CCc1ccc(n1CC3)CC2
T/C (dose: 8.0 mg/kg/injection, schedule: Q01DX009 (ip), vehicle: saline with Tween-80): 100 % of control
T/C (dose: 16.0 mg/kg/injection, schedule: Q01DX009 (ip), vehicle: saline with Tween-80): 100 % of control
T/C (dose: 32.0 mg/kg/injection, schedule: Q01DX009 (ip), vehicle: saline with Tween-80): 100 % of control

CCCOc1ccc(C(C)c2cc3c(cc2OCC)OCO3)cc1 (centres undefined)
T/C (dose: 50.0 mg/kg/injection, schedule: Q01DX005 (ip), vehicle: Klucel + Tween-80): 104 % of control
T/C (dose: 100.0 mg/kg/injection, schedule: Q01DX005 (ip), vehicle: Klucel + Tween-80): 98 % of control
T/C (dose: 200.0 mg/kg/injection, schedule: Q01DX005 (ip), vehicle: Klucel + Tween-80): 97 % of control

COC(=O)C1C2COc3ccccc3C2=NC1c1ccc([N+](=O)[O-])cc1 (centres undefined)
T/C (dose: 25.0 mg/kg/injection, schedule: Q01DX001 (ip), vehicle: Klucel (hydroxypropylcellulose) (HPC)): 91 % of control
T/C (dose: 50.0 mg/kg/injection, schedule: Q01DX001 (ip), vehicle: Klucel (hydroxypropylcellulose) (HPC)): 96 % of control
T/C (dose: 100.0 mg/kg/injection, schedule: Q01DX001 (ip), vehicle: Klucel (hydroxypropylcellulose) (HPC)): 95 % of control

CCCCCCCCCCCC(C)[N+](C)(C)[O-] (centres undefined)
T/C (dose: 12.5 mg/kg/injection, schedule: Q01DX009 (ip), vehicle: saline): 102 % of control
T/C (dose: 25.0 mg/kg/injection, schedule: Q01DX009 (ip), vehicle: saline): 96 % of control
T/C [11]: 87 % of control and 91 % of control

O=CNCC(=O)O
T/C [11]: 101 % of control
T/C (dose: 100.0 mg/kg/injection, schedule: Q01DX009 (ip), vehicle: saline): 97 % of control
T/C [3]: 99 % of control

CCCNC(=O)OCc1c(COC(=O)NCCC)c(-c2ccc(Cl)c(Cl)c2)n2c1CCC2
T/C (dose: 12.5 mg/kg/injection, schedule: Q01DX009 (ip), vehicle: distilled water + Tween-80): 120 % of control
T/C (dose: 20.0 mg/kg/injection, schedule: Q01DX009 (ip), vehicle: distilled water + Tween-80): 154 % of control
T/C (dose: 40.0 mg/kg/injection, schedule: Q01DX009 (ip), vehicle: distilled water + Tween-80): 154 % of control and 172 % of control
T/C (dose: 50.0 mg/kg/injection, schedule: Q01DX009 (ip), vehicle: distilled water + Tween-80): 166 % of control
T/C (dose: 80.0 mg/kg/injection, schedule: Q01DX009 (ip), vehicle: distilled water + Tween-80): 102 % of control and 91 % of control
T/C (dose: 100.0 mg/kg/injection, schedule: Q01DX009 (ip), vehicle: distilled water + Tween-80): 95 % of control

COC(=O)c1[nH]c(=O)c(C#N)c(C(=O)OC)c1C(=O)c1ccncc1
T/C [7]: 95 % of control
T/C [8]: 92 % of control

COc1ccc(OC)c(/C=C/c2ccc([N+](=O)[O-])cc2)c1
T/C (dose: 50.0 mg/kg/injection, schedule: Q01DX009 (ip), vehicle: Klucel (hydroxypropylcellulose) (HPC)): 100 % of control
T/C (dose: 100.0 mg/kg/injection, schedule: Q01DX009 (ip), vehicle: Klucel (hydroxypropylcellulose) (HPC)): 100 % of control
T/C (dose: 200.0 mg/kg/injection, schedule: Q01DX009 (ip), vehicle: Klucel (hydroxypropylcellulose) (HPC)): 86 % of control

CCOC(=O)CNCCN(CC)CC
T/C (dose: 100.0 mg/kg/injection, schedule: Q01DX001 (ip), vehicle: saline with Tween-80): 109 % of control
T/C (dose: 200.0 mg/kg/injection, schedule: Q01DX001 (ip), vehicle: saline with Tween-80): 95 % of control
T/C (dose: 400.0 mg/kg/injection, schedule: Q01DX001 (ip), vehicle: saline with Tween-80): 100 % of control

CCCn1c(C)nc2cc(C(F)(F)F)cc([N+](=O)[O-])c21
T/C [4]: 94 % of control
T/C [5]: 99 % of control
T/C (dose: 60.0 mg/kg/injection, schedule: Q01DX005 (ip), vehicle: saline with Tween-80): 101 % of control and 97 % of control
T/C (dose: 120.0 mg/kg/injection, schedule: Q01DX005 (ip), vehicle: saline with Tween-80): 98 % of control
T/C (dose: 240.0 mg/kg/injection, schedule: Q01DX005 (ip), vehicle: saline with Tween-80): 103 % of control

CCOC(=O)c1nn(C)c(=O)[nH]c1=O
T/C [7]: 99 % of control
T/C [8]: 100 % of control
T/C [9]: 100 % of control
